Assay results as given in patent US20220073941A1, “HERBICIDE-RESISTANT CAMELINA SATIVA PLANTS, AND VARIANT CAMELINA ACETOHYDROXYACID SYNTHASE POLYPEPTIDES” (priority 2019, published 2022).
Where “and” joins values, the source holds several entries; their conditions need not be identical. Equal entries are not always repeated.

Experiments:
Assay in all cases: AHAS product feedback inhibition assay (leucine, isoleucine, valine)
Type in all cases: biochemical, Camelina sativa
[1] = system: AHAS, enzyme extract of 14CS0851-01-14; details: for Absorbance at 530 nm (AHAS product feedback inhibition assay, raw data), Avg: average of replicates per experiment; for Absorbance at 530 nm (AHAS product feedback inhibition assay, raw data): individual replicates, experiments 1-3; for sensitivity of AHAS to feedback inhibition, comparison of enzyme extracts: extracts of 14CS0851-01-14, SRS 934 and MIDAS™ compared, 1 mM, 10 mM, 100 mM
Description: (§1) Briefly, for each of the three comparators, leaf and stem (petiole) material was bulk-harvested at the 3-4 leaf stage from at least 30 plantlets, snap-frozen in liquid nitrogen, and stored at −80° C. The AHAS in vitro assay was conducted according to the method of Singh et al (1988), with modifications by Yu (2010) and Rustgi (2014). For each comparator, 4 grams of frozen material were ground to a fine powder with a mortar and pestle in liquid nitrogen and homogenized in 1 volume of cold extraction buffer containing 100 mM potassium phosphate buffer (pH7.5), 10 mM sodium pyruvate, 5 mM MgCl2, 100 μM flavin adenine dinucleotide (FAD), and 10% glycerol. Four 2-mL microcentrifuge tubes were used for each comparator. The homogenate was centrifuged at 13,000 rpm for 10 min at 4° C., supernatant collected and re-centrifuged for an additional 10 minutes under the same conditions. For each tube, 1 mL of supernatant was pipetted into a new 2-mL microcentrifuge tube, and protein was precipitated by the addition of 1 mL of saturated ammonium sulfate. The solution was mixed well by vortex and allowed to stand on ice for 20 minutes, then centrifuged at 13,000 rpm at 4° C. The protein pellet was resuspended in 300 μL of reaction buffer containing 50 mM potassium phosphate buffer (pH7.5), 100 mM sodium pyruvate, 10 mM MgCl2, 1 mM EDTA, 10 μM FAD, 100 mM NaCl, and 1 mM thiamine pyrophosphate. Tubes of each comparator were combined, mixed well, kept on ice and immediately used in the AHAS activity and feedback inhibition assays.
(§2) Total protein concentration of the crude extract was determined by the Bradford method (Bradford, 1976). All assays were conducted using 300 μg of total protein each.
(§3) The feedback inhibition assay was performed by combining equal amounts of extract and amino acids leucine, isoleucine, or valine, respectively, in concentrations of 0.1 mM, 1 mM, 10 mM and 100 mM, according to Yu et al. (2010). The reaction mixture contained 50 μL enzyme extract and 50 μL 100 mM sodium pyruvate and inhibitor amino acid. The reaction was incubated at 37° C. for 60 minutes, then stopped and acetolactate converted to acetoin with the addition of 20 μL of 6 N H2SO4 and incubated at 60° C. for 15 minutes. A separate background “blank” was included for each sample group by adding 20 μL of 6 N H2SO4 prior to the addition of the enzyme extracts. Then, 95 μL of 0.55% w/v creatine solution and 95 μL of α-naphthol solution (5.5% w/v in 5 N NaOH) were added and the mixture incubated at 60° C. for a further 15 minutes. After cooling to room temperature for 15 minutes, enzyme activity was determined colorimetrically by reading the absorbance at 530 nm. Three independent experiments were conducted. Experiment 1 and 2 each contained 2 technical replicates, while experiment 3 included 3 technical replicates.

[2] = system: AHAS, enzyme extract of MIDAS™; details: for Absorbance at 530 nm (AHAS product feedback inhibition assay, raw data), Avg: average of replicates per experiment; for Absorbance at 530 nm (AHAS product feedback inhibition assay, raw data): individual replicates, experiments 1-3
Description: as §1, §2, §3

[3] = system: AHAS, enzyme extract of SRS 934; details: for Absorbance at 530 nm (AHAS product feedback inhibition assay, raw data), Avg: average of replicates per experiment; for Absorbance at 530 nm (AHAS product feedback inhibition assay, raw data): individual replicates, experiments 1-3
Description: as §1, §2, §3

[4] = 1 mM amino acid final concentration
[5] = 10 mM amino acid final concentration
[6] = 100 mM amino acid final concentration

Absorbance at 530 nm (AHAS product feedback inhibition assay, raw data), Avg [1, 4]	Absorbance at 530 nm (AHAS product feedback inhibition assay, raw data), Avg [1, 5]	Absorbance at 530 nm (AHAS product feedback inhibition assay, raw data), Avg [1, 6]	sensitivity of AHAS to feedback inhibition, comparison of enzyme extracts [1]	Absorbance at 530 nm (AHAS product feedback inhibition assay, raw data), Avg [2, 4]	Absorbance at 530 nm (AHAS product feedback inhibition assay, raw data), Avg [2, 5]	Absorbance at 530 nm (AHAS product feedback inhibition assay, raw data), Avg [2, 6]	Absorbance at 530 nm (AHAS product feedback inhibition assay, raw data), Avg [3, 4]	Absorbance at 530 nm (AHAS product feedback inhibition assay, raw data), Avg [3, 5]	Absorbance at 530 nm (AHAS product feedback inhibition assay, raw data), Avg [3, 6]	SMILES	Absorbance at 530 nm (AHAS product feedback inhibition assay, raw data) [1, 4]	Absorbance at 530 nm (AHAS product feedback inhibition assay, raw data) [1, 5]	Absorbance at 530 nm (AHAS product feedback inhibition assay, raw data) [1, 6]	Absorbance at 530 nm (AHAS product feedback inhibition assay, raw data) [2, 4]	Absorbance at 530 nm (AHAS product feedback inhibition assay, raw data) [2, 5]	Absorbance at 530 nm (AHAS product feedback inhibition assay, raw data) [2, 6]	Absorbance at 530 nm (AHAS product feedback inhibition assay, raw data) [3, 4]	Absorbance at 530 nm (AHAS product feedback inhibition assay, raw data) [3, 5]	Absorbance at 530 nm (AHAS product feedback inhibition assay, raw data) [3, 6]
0.296 and 0.229 and 0.105	0.209 and 0.186 and 0.088	0.182 and 0.145 and 0.061	no significant difference	0.327 and 0.238 and 0.141	0.2675 and 0.192	0.195 and 0.077	0.2535 and 0.224 and 0.115	0.234 and 0.187 and 0.093	0.186 and 0.156 and 0.069	CC[C@H](C)[C@H](N)C(=O)O [isoleucine]	0.305 and 0.287 and 0.238 and 0.220 and 0.106 and 0.104	0.217 and 0.201 and 0.200 and 0.171 and 0.087 and 0.082 and 0.094	0.188 and 0.176 and 0.70 and 0.120 and 0.061 and 0.072 and 0.052	0.306 and 0.348 and 0.271 and 0.204 and 0.136 and 0.138 and 0.149	0.275 and 0.208 and 0.176 and 0.100 and 0.107 and 0.102	0.194 and 0.176 and 0.149 and 0.080 and 0.075 and 0.078	0.251 and 0.256 and 0.245 and 0.203 and 0.120 and 0.111 and 0.114	0.233 and 0.235 and 0.219 and 0.154 and 0.091 and 0.089 and 0.100	0.196 and 0.176 and 0.177 and 0.134 and 0.065 and 0.069 and 0.073
0.204 and 0.149 and 0.094	0.174 and 0.136 and 0.064	0.122 and 0.056	no significant difference	0.2245 and 0.180 and 0.106	0.1775 and 0.166 and 0.093	0.148 and 0.152 and 0.090	0.204 and 0.192 and 0.089	0.1785 and 0.162 and 0.085	0.1475 and 0.136 and 0.080	CC(C)C[C@H](N)C(=O)O [leucine]	0.214 and 0.194 and 0.162 and 0.136 and 0.079 and 0.099 and 0.105	0.183 and 0.165 and 0.151 and 0.120 and 0.066 and 0.061 and 0.067	0.146 and 0.14 and 0.138 and 0.105 and 0.051 and 0.060 and 0.057	0.215 and 0.234 and 0.198 and 0.162 and 0.102 and 0.105 and 0.112	0.178 and 0.177 and 0.181 and 0.150 and 0.096 (2×) and 0.088	0.142 and 0.154 and 0.153 and 0.150 and 0.078 and 0.096 (2×)	0.2 and 0.208 and 0.225 and 0.158 and 0.097 and 0.085 and 0.086	0.17 and 0.187 and 0.163 and 0.140 and 0.092 and 0.091 and 0.071	0.154 and 0.141 and 0.167 and 0.104 and 0.084 and 0.068 and 0.089
0.213 and 0.207 and 0.080	0.196 and 0.178 and 0.073	0.1485 and 0.155 and 0.057	no significant difference	0.2475 and 0.203 and 0.117	0.214 and 0.191 and 0.112	0.1815 and 0.166 and 0.089	0.231 and 0.181 and 0.094	0.184 and 0.179 and 0.093	0.1625 and 0.142 and 0.070	CC(C)[C@H](N)C(=O)O [valine]	0.216 and 0.21 and 0.227 and 0.187 and 0.079 and 0.080 and 0.082	0.203 and 0.189 and 0.190 and 0.166 and 0.057 and 0.84 and 0.80	0.155 and 0.142 and 0.176 and 0.133 and 0.054 and 0.061 and 0.056	0.252 and 0.243 and 0.239 and 0.166 and 0.115 and 0.116 and 0.122	0.205 and 0.223 and 0.217 and 0.113 and 0.110 and 0.112	0.174 and 0.189 and 0.171 and 0.161 and 0.084 and 0.091 and 0.092	0.236 and 0.226 and 0.198 and 0.163 and 0.086 and 0.098 and 0.100	0.186 and 0.182 and 0.206 and 0.151 and 0.091 (2×) and 0.096	0.168 and 0.157 and 0.184 and 0.100 and 0.071 and 0.072 and 0.067
